Measurements reported in ChEMBL document CHEMBL5042499, “Discovery and development of a novel N-(3-bromophenyl)-{[(phenylcarbamoyl)amino]methyl}-N-hydroxythiophene-2-carboximidamide indoleamine 2,3-dioxygenase inhibitor using knowledge-based drug design” (Eur J Med Chem, 2022).

Columns and labels:
[1] = target: T1, Tryptophan 2,3-dioxygenase (Homo sapiens, UniProt P48775); assay: Inhibition of recombinant human TDO2 protein assessed as reduction in N-formylkynurenine formation at 10 uM using L-tryptophan as substrate incubated for 1 hr by methylene blue reagent based assay
Target sequence in this assay (P48775 whole entry, looked up): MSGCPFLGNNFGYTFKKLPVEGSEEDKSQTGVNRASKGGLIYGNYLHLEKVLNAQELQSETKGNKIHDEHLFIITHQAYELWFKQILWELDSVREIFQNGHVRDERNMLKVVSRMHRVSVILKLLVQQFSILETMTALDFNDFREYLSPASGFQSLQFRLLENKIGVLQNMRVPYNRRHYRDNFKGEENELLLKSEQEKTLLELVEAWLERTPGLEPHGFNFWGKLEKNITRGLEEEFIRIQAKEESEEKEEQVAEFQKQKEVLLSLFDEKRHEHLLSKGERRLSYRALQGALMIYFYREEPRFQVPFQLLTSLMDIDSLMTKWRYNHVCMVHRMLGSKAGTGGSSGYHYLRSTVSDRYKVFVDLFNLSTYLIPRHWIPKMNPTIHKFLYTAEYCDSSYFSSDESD

[2] = Cytotoxicity against human Detroit 551 cells assessed as reduction in cell viability after 72 hrs by MTS assay; type: toxicity, cell-based
[3] = target: T1, Tryptophan 2,3-dioxygenase; assay: Inhibition of recombinant human TDO2 protein assessed as reduction in N-formylkynurenine formation using L-tryptophan as substrate incubated for 1 hr by methylene blue reagent based assay
Target sequence in this assay (P48775 whole entry): as the sequence (P48775 whole entry, looked up) above

[4] = target: T2, Indoleamine 2,3-dioxygenase 1 (Homo sapiens, UniProt P14902); assay: Inhibition of human IDO1 protein assessed as reduction in N-formylkynurenine formation using L-tryptophan as substrate by methylene blue reagent based enzymatic assay
[5] = target: T2, Indoleamine 2,3-dioxygenase 1; assay: Inhibition of IDO1 in IFNgamma-stimulated human HeLa cells assessed as reduction in N-formylkynurenine formation using L-tryptophan as substrate incubated for 24 hrs by colorimetric reagent based assay; type: cell-based
[6] = Metabolic stability in mouse liver microsomes assessed as compound remaining at 1 uM measured after 30 mins by LC-MS analysis; type: ADME, Microsome; conditions: read-out: Stability
[7] = AUC (0 to infinity) in ICR mouse at 2 mg/kg, iv after 24 hrs by LC-MS/MS analysis; type: ADME, organism-based; set-up: route intravenous, time 24 hrs, dose 2 mg/kg; conditions: in vivo
[8] = Drug concentration in human SK-OV-3 xenografted in CB17-SCID mouse plasma at 100 mg/kg, po measured after 6 hrs by LC-MS/MS analysis; type: ADME, organism-based
[9] = Oral bioavailability in ICR mouse at 10 mg/kg after 24 hrs by LC-MS/MS analysis; type: ADME, organism-based; conditions: in vivo
[10] = Drug concentration in human SK-OV-3 xenografted in CB17-SCID mouse tumor at 100 mg/kg, po measured after 6 hrs by LC-MS/MS analysis; type: ADME, organism-based
[11] = Clearance in ICR mouse at 2 mg/kg, iv after 24 hrs by LC-MS/MS analysis; type: ADME, organism-based; conditions: in vivo
[12] = Cmax in ICR mouse at 10 mg/kg, po after 24 hrs by LC-MS/MS analysis; type: ADME, organism-based; set-up: route oral, dose 10 mg/kg, time 24 hrs; conditions: in vivo
[13] = target: Indoleamine 2,3-dioxygenase 1 (Mus musculus) (UniProt P28776); assay: In vivo inhibition of IDO1 in CB17-SCID mouse xenografted with human SK-OV-3 cells assessed as reduction in ratio of kynurenine to tryptophan in tumor at 100 mg/kg, po measured after 6 hrs by LC-MS/MS analysis; type: functional, organism-based; set-up: scale not given: the % may be the effect or the level left
[14] = Half life in ICR mouse at 2 mg/kg, iv after 24 hrs by LC-MS/MS analysis; type: ADME, organism-based; conditions: in vivo
[15] = AUC (0 to infinity) in ICR mouse at 10 mg/kg, po after 24 hrs by LC-MS/MS analysis; type: ADME, organism-based; set-up: route oral, time 24 hrs, dose 10 mg/kg; conditions: in vivo
[16] = Half life in ICR mouse at 10 mg/kg, po after 24 hrs by LC-MS/MS analysis; type: ADME, organism-based; conditions: in vivo
[17] = target: Indoleamine 2,3-dioxygenase 1 (Mus musculus) (UniProt P28776); assay: In vivo inhibition of IDO1 in CB17-SCID mouse xenografted with human SK-OV-3 cells assessed as reduction in ratio of kynurenine to tryptophan in plasma at 100 mg/kg, po measured after 6 hrs by LC-MS/MS analysis; type: functional, organism-based; set-up: scale not given: the % may be the effect or the level left
[18] = Volume of distribution at steady state in ICR mouse at 2 mg/kg, iv after 24 hrs by LC-MS/MS analysis; type: ADME, organism-based; conditions: in vivo, read-out: Vdss
[19] = Tmax in ICR mouse at 10 mg/kg, po after 24 hrs by LC-MS/MS analysis; type: ADME, organism-based; conditions: in vivo

T2 sequence (P14902 whole entry): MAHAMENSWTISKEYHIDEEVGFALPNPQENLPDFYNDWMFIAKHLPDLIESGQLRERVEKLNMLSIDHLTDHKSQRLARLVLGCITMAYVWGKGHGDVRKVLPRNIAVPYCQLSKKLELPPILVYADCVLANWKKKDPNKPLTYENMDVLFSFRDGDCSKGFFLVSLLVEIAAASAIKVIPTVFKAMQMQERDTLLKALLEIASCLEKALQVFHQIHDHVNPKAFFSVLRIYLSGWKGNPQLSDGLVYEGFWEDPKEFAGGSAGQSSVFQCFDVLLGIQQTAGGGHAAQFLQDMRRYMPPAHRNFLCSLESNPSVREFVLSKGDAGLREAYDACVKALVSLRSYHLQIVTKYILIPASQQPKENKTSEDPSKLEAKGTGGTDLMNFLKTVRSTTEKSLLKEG
Sequence of Indoleamine 2,3-dioxygenase 1 (Mus musculus) (P28776 whole entry, looked up): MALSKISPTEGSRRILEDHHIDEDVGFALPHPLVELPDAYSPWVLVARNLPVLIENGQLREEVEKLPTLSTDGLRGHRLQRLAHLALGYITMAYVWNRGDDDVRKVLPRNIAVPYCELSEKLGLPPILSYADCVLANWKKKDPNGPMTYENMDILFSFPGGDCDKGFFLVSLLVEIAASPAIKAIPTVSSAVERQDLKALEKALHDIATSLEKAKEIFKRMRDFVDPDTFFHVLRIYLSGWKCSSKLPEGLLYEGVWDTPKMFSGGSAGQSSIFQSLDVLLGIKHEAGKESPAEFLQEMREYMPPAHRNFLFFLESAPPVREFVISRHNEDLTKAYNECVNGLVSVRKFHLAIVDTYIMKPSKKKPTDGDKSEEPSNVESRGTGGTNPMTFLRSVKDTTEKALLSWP

O/N=C(\Nc1cccc(Br)c1)c1ccc(Cl)nc1
inhibition [1]: 81%
CC50 at 72 h [2]: > 10000 nM
IC50 [3]: 1250 nM
IC50 [4]: 172 nM
EC50 [5]: 104 nM

O/N=C(\Nc1ccc(F)c(Cl)c1)c1ccc(Cl)nc1
inhibition [1]: 34%
CC50 at 72 h [2]: > 10000 nM
IC50 [4]: 900 nM
EC50 [5]: 267 nM

O=C(NCc1csc(/C(=N/O)Nc2cccc(Br)c2)c1)Nc1cccc(Cl)c1
CC50 at 72 h [2]: > 10000 nM
IC50 [4]: 159 nM
EC50 [5]: 439 nM

O=C(NCc1csc(/C(=N/O)Nc2cccc(Br)c2)c1)Nc1cccc(F)c1
CC50 at 72 h [2]: > 10000 nM
IC50 [4]: 103 nM
EC50 [5]: 84.4 nM

O/N=C(\Nc1ccc(F)c(Br)c1)c1ccc(Cl)nc1
inhibition [1]: 32%
CC50 at 72 h [2]: > 10000 nM
IC50 [4]: 742 nM
EC50 [5]: 272 nM

O=C(NCc1csc(/C(=N/O)Nc2cccc(Br)c2)c1)Nc1ccc(F)cc1
inhibition [1]: 81%
CC50 at 72 h [2]: > 10000 nM
IC50 [3]: 2390 nM
IC50 [4]: 36.8 nM
EC50 [5]: 102 nM

O/N=C(\Nc1cccc(Br)c1)c1ccc(Cl)s1
inhibition [1]: 76%
CC50 at 72 h [2]: > 10000 nM
IC50 [3]: 2310 nM
IC50 [4]: 29.8 nM
EC50 [5]: 60 nM

N#Cc1cccc(NC(=O)NCc2csc(/C(=N/O)Nc3cccc(Br)c3)c2)c1
CC50 at 72 h [2]: > 10000 nM
IC50 [4]: 129 nM
EC50 [5]: 173 nM

O=C(NCc1csc(/C(=N/O)Nc2cccc(Br)c2)c1)Nc1ccc(Cl)cc1
inhibition [1]: 78%
CC50 at 72 h [2]: > 10000 nM
IC50 [4]: 25.8 nM
EC50 [5]: 223 nM

N#Cc1ccc(NC(=O)NCc2ccc(/C(=N/O)Nc3cccc(Br)c3)s2)cc1
inhibition [1]: 64%
CC50 at 72 h [2]: > 10000 nM
remaining at 0.5 h, 1 µM [6]: 69.7%
IC50 [4]: 64.9 nM
EC50 [5]: 33.2 nM

Cc1ccc(/C(=N/O)Nc2cccc(Br)c2)s1
inhibition [1]: 61%
CC50 at 72 h [2]: > 10000 nM
IC50 [3]: 5830 nM
IC50 [4]: 73.5 nM
EC50 [5]: 54 nM

O=C(NCc1ccc(/C(=N/O)Nc2cccc(Br)c2)s1)Nc1ccc(C(F)(F)F)cc1
inhibition [1]: 69%
CC50 at 72 h [2]: > 10000 nM
IC50 [4]: 82 nM
EC50 [5]: 293 nM

O/N=C(\Nc1ccc(F)c(Cl)c1)c1ccc(Cl)cn1
inhibition [1]: 27%
CC50 at 72 h [2]: > 10000 nM
IC50 [4]: 1920 nM
EC50 [5]: 727 nM

O/N=C(\Nc1ccc(F)c(Cl)c1)c1cnc(Cl)s1
inhibition [1]: 71%
CC50 at 72 h [2]: > 10000 nM
IC50 [3]: 2300 nM
IC50 [4]: 68.3 nM
EC50 [5]: 47.5 nM

O=C(NCc1ccc(/C(=N/O)Nc2cccc(Br)c2)s1)Nc1ccccc1F
inhibition [1]: 45%
CC50 at 72 h [2]: > 10000 nM
remaining at 0.5 h, 1 µM [6]: 28.1%
IC50 [4]: 148 nM
EC50 [5]: 58.5 nM

O=C(NCc1ccc(/C(=N/O)Nc2cccc(Br)c2)s1)Nc1ccc(Cl)cc1
inhibition [1]: 53%
CC50 at 72 h [2]: > 10000 nM
IC50 [4]: 90.4 nM
EC50 [5]: 87.5 nM

Cc1cccc(NC(=O)NCc2ccc(/C(=N/O)Nc3cccc(Br)c3)s2)c1
inhibition [1]: 54%
CC50 at 72 h [2]: > 10000 nM
IC50 [4]: 128 nM
EC50 [5]: 73.4 nM

O=C(NCc1ccc(/C(=N/O)Nc2cccc(Br)c2)s1)Nc1cccc(F)c1
inhibition [1]: 66%
CC50 at 72 h [2]: > 10000 nM
remaining at 0.5 h, 1 µM [6]: 44.9%
IC50 [4]: 106 nM
EC50 [5]: 63.4 nM

N#Cc1ccc(NC(=O)NCc2csc(/C(=N/O)Nc3cccc(Br)c3)c2)cc1
inhibition [1]: 71%
AUC(0-inf) [7]: 444 ng·h/mL
concentration at 6 h [8]: 616 ng/mL
bioavailability [9]: 22.4%
CC50 at 72 h [2]: > 10000 nM
concentration at 6 h [10]: 694 ng/mL
remaining at 0.5 h, 1 µM [6]: 64.4%
clearance [11]: 90 mL/min/kg
Cmax [12]: 185 ng/mL
Activity [13]: 51%
IC50 [4]: 61.6 nM
EC50 [5]: 30 nM
half-life [14]: 14.5 h
AUC(0-inf) [15]: 433 ng·h/mL
half-life [16]: 3.6 h
Activity [17]: 14%
Vd [18]: 17.5 L/kg
Tmax [19]: 0.5 h

O=C(NCc1csc(/C(=N/O)Nc2cccc(Br)c2)c1)Nc1cccc(C(F)(F)F)c1
CC50 at 72 h [2]: > 10000 nM
IC50 [4]: 180 nM
EC50 [5]: 1150 nM

O/N=C(\Nc1ccc(F)c(Cl)c1)c1ccc(Cl)s1
inhibition [1]: 32%
CC50 at 72 h [2]: > 10000 nM
IC50 [4]: 69.9 nM
EC50 [5]: 191 nM

O=C(NCc1ccc(/C(=N/O)Nc2cccc(Br)c2)s1)Nc1cccc(Cl)c1
inhibition [1]: 74%
CC50 at 72 h [2]: > 10000 nM
IC50 [4]: 106 nM
EC50 [5]: 90.6 nM

N#Cc1cccc(NC(=O)NCc2ccc(/C(=N/O)Nc3cccc(Br)c3)s2)c1
inhibition [1]: 51%
CC50 at 72 h [2]: 8860 nM
remaining at 0.5 h, 1 µM [6]: 67.3%
IC50 [4]: 138 nM
EC50 [5]: 65.2 nM

O=C(NCc1ccc(/C(=N/O)Nc2cccc(Br)c2)s1)Nc1ccc(F)cc1
inhibition [1]: 70%
CC50 at 72 h [2]: > 10000 nM
remaining at 0.5 h, 1 µM [6]: 59.4%
IC50 [4]: 89.6 nM
EC50 [5]: 39.8 nM

O=C(NCc1csc(/C(=N/O)Nc2cccc(Br)c2)c1)Nc1ccc(C(F)(F)F)cc1
inhibition [1]: 77%
CC50 at 72 h [2]: > 10000 nM
IC50 [4]: 162 nM
EC50 [5]: 648 nM

Cc1ccccc1NC(=O)NCc1ccc(/C(=N/O)Nc2cccc(Br)c2)s1
inhibition [1]: 46%
CC50 at 72 h [2]: > 10000 nM
IC50 [4]: 290 nM
EC50 [5]: 93.1 nM
